Structures can show the parent of a compound that is named as a salt.
Target: Putative heat shock protein HSP 90-alpha A4 (Homo sapiens, UniProt Q58FG1)
Test: Fluorescence Polarization (FP) Assay
Protocol: The fluorescence polarization (FP) assay was performed as described in the reference (Bioorg Med Chem. 2010. 18:6031-6043).

Chain of Putative heat shock protein HSP 90-alpha A4 (Q58FG1 whole entry): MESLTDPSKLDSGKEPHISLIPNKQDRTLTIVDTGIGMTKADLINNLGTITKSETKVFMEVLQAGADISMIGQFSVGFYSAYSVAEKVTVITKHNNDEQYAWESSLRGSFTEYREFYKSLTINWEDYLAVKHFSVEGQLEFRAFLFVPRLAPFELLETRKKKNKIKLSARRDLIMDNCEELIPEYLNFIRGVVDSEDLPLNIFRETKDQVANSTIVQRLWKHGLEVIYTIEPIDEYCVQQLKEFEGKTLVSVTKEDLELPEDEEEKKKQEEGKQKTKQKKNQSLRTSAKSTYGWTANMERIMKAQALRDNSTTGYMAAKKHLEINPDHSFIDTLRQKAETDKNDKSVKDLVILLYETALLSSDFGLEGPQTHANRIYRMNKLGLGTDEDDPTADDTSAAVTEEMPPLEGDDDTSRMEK

First: Oc1cc(O)c(-c2noc3c2CCCC3O)cc1Cl (configuration not stated) [3-(5-chloro-2,4-dihydroxyphenyl)-4,5,6,7-tetrahydro-benzo[d]isoxazol-7-ol (14)]
Second: O=C1CCCc2c(-c3cc(Cl)c(O)cc3O)noc21 [3-(5-chloro-2,4-dihydroxyphenyl)-5,6-dihydrobenzo[d]isoxazol-7(4H)-one (13)]
The IC50 of the first is 5.4-fold higher: 26 µM for the first, 4.8 µM for the second.

Compared with `NCCON=C1CCCc2c(-c3cc(Cl)c(O)cc3O)noc21` [3-(5-chloro-2,4-dihydroxyphenyl)-5,6-dihydro-4H-benzo[d]isoxazol-7-one O-(2-aminoethyl)-oxime hydrochloride (16)], `ON=C1CCCc2c(-c3cc(Cl)c(O)cc3O)noc21` [3-(5-chloro-2,4-dihydroxyphenyl)-5,6-dihydro-4H-benzo[d]isoxazol-7-one oxime (15)] is 7.9-fold lower in IC50: 6.3 µM for the first, 0.8 µM for the second.

Going from `CN1CCc2c(-c3cc(Cl)c(O)cc3O)noc2C1=O` [3-(5-chloro-2,4-dihydroxyphenyl)-5,6-dihydro-6-methylisoxazolo[5,4-c]pyridin-7(4H)-one (9a)] to `O=C1NCCc2c(-c3cc(Cl)c(O)cc3O)noc21` [3-(5-chloro-2,4-dihydroxyphenyl)-5,6-dihydroisoxazolo[5,4-c]pyridin-7(4H)-one (9b)], the IC50 falls from 10 µM to 1.6 µM (6.2-fold).

`NCCON=C1CCCc2c(-c3ccc(C(N)=O)cc3)noc21` [4-(7-(2-Aminoethoxyimino)-4,5,6,7-tetrahydrobenzo[d]isoxazol-3-yl)-benzamide hydrochloride (21c)] and `NC(=O)c1ccc(-c2noc3c2CCCC3=NO)cc1` [4-(7-Hydroxyimino-4,5,6,7-tetrahydro-benzo[d]isoxazol-3-yl)benzamide (21a)] cannot be ordered by IC50: over 100 µM for the first, over 100 µM for the second.

`NC(=O)c1ccc(-c2noc3c2CCCC3=NOCCN2CCOCC2)cc1` [4-(7-(2-Morpholin-4-yl-ethoxyimino)-4,5,6,7-tetrahydrobenzo[d]isoxazol-3-yl)benzamide (21b)] and `NC(=O)c1ccc(-c2noc3c2CCCC3=O)cc1` [4-(7-Oxo-4,5,6,7-tetrahydrobenzo[d]isoxazol-3-yl)-benzamide (20)] cannot be ordered by IC50: over 100 µM for the first, over 100 µM for the second.

Going from `NC(=O)c1ccc(-c2noc3c2CCCC3O)cc1` (configuration not stated) [4-(7-Hydroxy-4,5,6,7-tetrahydro-benzo[d]isoxazol-3-yl)benzamide (22)] to `C=CCNC1=C2C[C@@H](C)C[C@H](OC)C[C@@H](C)/C=C/[C@H](OC(N)=O)[C@@H](OC)/C=C\C=C(/C)C(=O)NC(=CC1=O)C2=O` [17-AAG], the IC50 falls from over 100 µM to 1.09 µM.

Source: BindingDB's records for doi:10.1111/cbdd.12570 (University of Milano, 2015)
